Experimental data from US11414424B2, “Cardiac sarcomere inhibitors” (Cytokinetics, Inc., priority 2018, dated 2022).

Tested on: bovine cardiac myofibrils
Assay: Myofibril assay: PK/LDH-coupled steady-state ATPase activity of skinned bovine cardiac myofibrils
Assay type: biochemical
Conditions: Ca2+ activating to 75% of maximal rate
Method in brief: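 Steady-state ATPase of detergent-skinned bovine left-ventricular myofibrils (1 mg/mL), PK/LDH-coupled NADH read at 340 nm, in PIPES/MgCl2 buffer pH 6.8 with 50 μM ATP, 0.6 mM EGTA and CaCl2 set for 50% or 75% activation. Inhibition of activity measured.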

| SMILES | CDMF75 IC15 [µM] |
| --- | --- |
| O=C1CN(c2ncc(Cl)cc2F)C(=O)C2(CC2)N1Cc1ccc(C(F)(F)F)cc1 [Compound 550, 7-(5-chloro-3-fluoropyridin-2-yl)-4-(4-(trifluoromethyl)benzyl)-4,7-diazaspiro[2.5]octane-5,8-dione] | 0.8 |
| O=C1CN(c2ncc(Cl)cc2F)C(=O)C2(COC2)N1Cc1ccc(C(F)(F)F)cc1 [Compound 551, 8-(5-chloro-3-fluoropyridin-2-yl)-5-(4-(trifluoromethyl)-benzyl)-2-oxa-5,8-diazaspiro[3.5]nonane-6,9-dione] | 2.48 |
| CNC(=O)N1CC2(C1)C(=O)N(c1ncc(Cl)cc1F)CC(=O)N2Cc1ccc(C(F)(F)F)cc1 [Compound 552, 8-(5-chloro-3-fluoropyridin-2-yl)-N-methyl-6,9-dioxo-5-(4-(trifluoromethyl)-benzyl)-2,5,8-triazaspiro-[3.5]nonane-2-carboxamide] | 0.5 |
| O=C1CN(c2ncc(Cl)cc2F)C(=O)C2(CCOC2)N1Cc1ccc(C(F)(F)F)cc1 (stereo not shown) [Compound 553, 9-(5-chloro-3-fluoropyridin-2-yl)-6-(4-(trifluoromethyl)-benzyl)-2-oxa-6,9-diazaspiro[4.5]decane-7,10-dione] | 1.4 |
| CC(C)[C@H]1C(=O)N(c2ncc(Cl)cc2F)CC(=O)N1Cc1ccc(C(F)(F)F)cc1 [Compound 554, (S)-1-(5-chloro-3-fluoro-pyridin-2-yl)-3-isopropyl-4-(4-(trifluoromethyl)-benzyl)piperazine-2,5-dione] | 0.4 |
| O=C1[C@H](C2CCC2)N(Cc2ccc(C(F)(F)F)cc2)C(=O)CN1c1ncc(Cl)cc1F [Compound 555, (S)-1-(5-chloro-3-fluoro-pyridin-2-yl)-3-cyclobutyl-4-(4-(trifluoromethyl)-benzyl)piperazine-2,5-dione] | 0.9 |
| CC(=O)N1CC2(C1)C(=O)N(c1ncc(Cl)cc1F)CC(=O)N2[C@@H](C)c1ccc(Cl)cc1 [Compound 556, (S)-2-acetyl-8-(5-chloro-3-fluoropyridin-2-yl)-5-(1-(4-chlorophenyl)ethyl)-2,5,8-triazaspiro[3.5]nonane-6,9-dione] | 2.7 |
| C[C@@H](c1ccc(Cl)cc1)N1C(=O)CN(c2ncc(Cl)cc2F)C(=O)C12COC2 [Compound 558] | 7.04 |
| C[C@@H](c1ccc(Cl)cc1)N1C(=O)CN(c2ncc(Cl)cc2F)C(=O)C12CN(C(=O)NC1CC1)C2 [Compound 559, (S)-8-(5-chloro-3-fluoro-pyridin-2-yl)-5-(1-(4-chlorophenyl)ethyl)-N-cyclopropyl-6,9-dioxo-2,5,8-triazaspiro[3.5]-nonane-2-carboxamide] | 25.1 |
| CCNC(=O)N1CC2(C1)C(=O)N(c1ncc(Cl)cc1F)CC(=O)N2[C@@H](C)c1ccc(Cl)cc1 [Compound 560, (S)-8-(5-chloro-3-fluoro-pyridin-2-yl)-5-(1-(4-chlorophenyl)ethyl)-N-ethyl-6,9-dioxo-2,5,8-triazaspiro[3.5]nonane-2-carboxamide] | 8.6 |
| CC(C)NC(=O)N1CC2(C1)C(=O)N(c1ncc(Cl)cc1F)CC(=O)N2[C@@H](C)c1ccc(Cl)cc1 [Compound 561, (S)-8-(5-chloro-3-fluoro-pyridin-2-yl)-5-(1-(4-chlorophenyl)ethyl)-N-isopropyl-6,9-dioxo-2,5,8-triazaspiro[3.5]nonane-2-carboxamide] | 19.8 |
| C[C@@H](c1ccc(Cl)cc1)N1C(=O)CN(c2ncc(Cl)cc2F)C(=O)C12CN(C(=O)NC1CCOCC1)C2 [Compound 562, (S)-8-(5-chloro-3-fluoro-pyridin-2-yl)-5-(1-(4-chlorophenyl)ethyl)-6,9-dioxo-N-(tetrahydro-2H-pyran-4-yl)-2,5,8-triazaspiro[3.5]nonane-2-carboxamide] | 29.0 |
| CNC(=O)N1CC2(C1)C(=O)N(c1ncc(Cl)cc1F)CC(=O)N2[C@@H](C)c1ccc(Cl)cc1 [Compound 563, (S)-8-(5-chloro-3-fluoro-pyridin-2-yl)-5-(1-(4-chlorophenyl)ethyl)-N-methyl-6,9-dioxo-2,5,8-triazaspiro[3.5]nonane-2-carboxamide] | 2.2 |
| CC(=O)N1CC2(C1)C(=O)N(c1ncc(C(F)F)cc1F)CC(=O)N2[C@@H](C)c1ccc(Cl)cc1 [Compound 564, (S)-2-acetyl-5-(1-(4-chlorophenyl)ethyl)-8-(5-(difluoromethyl)-3-fluoropyridin-2-yl)-2,5,8-triazaspiro[3.5]nonane-6,9-dione] | 13.0 |
| CC(=O)N1CC2(C1)C(=O)N(c1ncc(C(F)(F)F)cc1F)CC(=O)N2[C@@H](C)c1ccc(Cl)cc1 [Compound 565, (S)-2-acetyl-5-(1-(4-chlorophenyl)ethyl)-8-(3-fluoro-5-(trifluoromethyl)-pyridin-2-yl)-2,5,8-triazaspiro[3.5]nonane-6,9-dione] | 17.8 |
| C[C@@H](c1ccc(Cl)cc1)N1C(=O)CN(c2ncc(Cl)cc2F)C(=O)C12CN(CC(F)F)C2 [Compound 566, (S)-8-(5-chloro-3-fluoro-pyridin-2-yl)-5-(1-(4-chlorophenyl)ethyl)-2-(2,2-difluoroethyl)-2,5,8-triazaspiro[3.5]nonane-6,9-dione] | 4.0 |

| SMILES | CDMF75 IC15 [µM] |
| --- | --- |
| COC(=O)N1CC2(C1)C(=O)N(c1ncc(Cl)cc1F)CC(=O)N2[C@@H](C)c1ccc(Cl)cc1 [Compound 567, methyl (S)-8-(5-chloro-3-fluoropyridin-2-yl)-5-(1-(4-chlorophenyl)ethyl)-6,9-dioxo-2,5,8-triazaspiro-[3.5]nonane-2-carboxylate] | 1.2 |
| C[C@@H](c1ccc(Cl)cc1)N1C(=O)CN(c2ncc(Cl)cc2F)C(=O)C12CN(C=O)C2 [Compound 568, (S)-8-(5-chloro-3-fluoro-pyridin-2-yl)-5-(1-(4-chlorophenyl)ethyl)-6,9-dioxo-2,5,8-triazaspiro-[3.5]nonane-2-carbaldehyde] | 1.2 |
| C[C@@H](c1ccc(Cl)cc1)N1C(=O)CN(c2ncc(Cl)cc2F)C(=O)C12CN(C(=O)OCC(F)F)C2 [Compound 569, 2,2-difluoroethyl (S)-8-(5-chloro-3-fluoropyridin-2-yl)-5-(1-(4-chlorophenyl)-ethyl)-6,9-dioxo-2,5,8-triazaspiro[3.5]nonane-2-carboxylate] | 2.6 |
| CC(=O)N1CC2(C1)C(=O)N(c1ncc(Cl)cc1F)CC(=O)N2[C@@H](C)c1ccc(C(F)(F)F)cc1 [Compound 570, (S)-2-acetyl-8-(5-chloro-3-fluoropyridin-2-yl)-5-(1-(4-(trifluoromethyl)phenyl)-ethyl)-2,5,8-triazaspiro-[3.5]nonane-6,9-dione] | 2.2 |
| CC(=O)N1CC2(C1)C(=O)N(c1ncc(Br)cc1F)CC(=O)N2[C@@H](C)c1ccc(C(F)(F)F)cc1 [Compound 571, (S)-2-acetyl-8-(5-bromo-3-fluoropyridin-2-yl)-5-(1-(4-(trifluoromethyl)phenyl)-ethyl)-2,5,8-triazaspiro-[3.5]nonane-6,9-dione] | 2.0 |
| CC(=O)N1CCC2(CC1)C(=O)N(c1ncc(Cl)cc1F)CC(=O)N2Cc1ccc(C(F)(F)F)cc1 [Compound 572, 9-acetyl-4-(5-chloro-3-fluoropyridin-2-yl)-1-(4-(trifluoromethyl)benzyl)-1,4,9-triazaspiro[5.5]-undecane-2,5-dione] | 7.4 |
| CC1(CO)C(=O)N(c2ncc(Cl)cc2F)CC(=O)N1Cc1ccc(C(F)(F)F)cc1 (stereo not shown) [Compound 573, 1-(5-chloro-3-fluoropyridin-2-yl)-3-(hydroxymethyl)-3-methyl-4-(4-(trifluoro-methyl)benzyl)piperazine-2,5-dione] | 6.5 |
| O=C1CN(c2ncc(Cl)cc2F)C(=O)C2(CC(F)C2)N1Cc1ccc(C(F)(F)F)cc1 (stereo not shown) [Compound 574, 8-(5-chloro-3-fluoropyridin-2-yl)-2-fluoro-5-(4-(trifluoromethyl)benzyl)-5,8-diazaspiro[3.5]nonane-6,9-dione] | 0.3 |
| O=C1CN(c2ncc(Cl)cc2F)C(=O)C2(COC2)N1Cc1ccc(Cl)cc1 [Compound 575, 8-(5-chloro-3-fluoropyridin-2-yl)-5-(4-chlorobenzyl)-2-oxa-5,8-diazaspiro[3.5]nonane-6,9-dione] | 1.5 |
| CC1(C)C(=O)N(c2ncc(Cl)cc2F)CC(=O)N1Cc1ccc(Cl)cc1 [Compound 576, 1-(5-chloro-3-fluoropyridin-2-yl)-4-(4-chlorobenzyl)-3,3-dimethylpiperazine-2,5-dione] | 2.2 |
| O=C1CN(c2ncc(Cl)cc2F)C(=O)C2(CC2)N1Cc1ccc(Cl)cc1 [Compound 577, 7-(5-chloro-3-fluoropyridin-2-yl)-4-(4-chlorobenzyl)-4,7-diazaspiro[2.5]octane-5,8-dione] | 0.9 |
| CNC(=O)N1CC2(C1)C(=O)N(c1ncc(Cl)cc1F)CC(=O)N2[C@@H](C)c1ccc(C(F)(F)F)cc1 [Compound 592, (S)-8-(5-chloro-3-fluoro-pyridin-2-yl)-N-methyl-6,9-dioxo-5-(1-(4-(trifluoromethyl)phenyl)-ethyl)-2,5,8-triazaspiro-[3.5]nonane-2-carboxamide] | 1.3 |
| C[C@@H](c1ccc(C(F)(F)F)cc1)N1C(=O)CN(c2ncc(Cl)cc2F)C(=O)C12CN(CC(F)F)C2 [Compound 593, (S)-8-(5-chloro-3-fluoro-pyridin-2-yl)-2-(2,2-difluoroethyl)-5-(l-(4-(trifluoromethyl)phenyl)-ethyl)-2,5,8-triazaspiro-[3.5]nonane-6,9-dione] | 2.3 |
| CSCCC1C(=O)N(c2ncc(Cl)cc2F)CC(=O)N1Cc1ccc(C(F)(F)F)cc1 (stereo not shown) [Compound 610, 1-(5-chloro-3-fluoropyridin-2-yl)-3-(2-(methylthio)-ethyl)-4-(4-(trifluoro-methyl)-benzyl)piperazine-2,5-dione] | 1.7 |
| CS(=O)(=O)CCC1C(=O)N(c2ncc(Cl)cc2F)CC(=O)N1Cc1ccc(C(F)(F)F)cc1 (stereo not shown) [Compound 612, 1-(5-chloro-3-fluoropyridin-2-yl)-3-(2-(methylsulfonyl)-ethyl)-4-(4-(trifluoro-methyl)benzyl)piperazine-2,5-dione] | 13.6 |
